Measured values reported in article PMC10324308, “Biodegradation of Amphipathic Fluorinated Peptides Reveals a New Bacterial Defluorinating Activity and a New Source of Natural Organofluorine Compounds” (Environmental Science & Technology, 2023).
Where a SMILES comes first, the peptide text is derived from it. [ ]: non-standard residue; d: D form. Abu(4,4,4-F3) = N[C@@H](CC(F)(F)F)C(=O)O; Abu(4,4-F2) = N[C@@H](CC(F)F)C(=O)O; 4Abz = Nc1ccc(C(=O)O)cc1; Abu = CC[C@H](N)C(=O)O

Tests used:
[1] = target: T1, bromelain (pineapple stem) (Ananas comosus, UniProt P14518); assay: Peptide digestion assay with bromelain; format: in vitro ADME; details: 500 μM peptide, bromelain 4.5 μM, 50 mM bis-tris propane + 20 mM CaCl2, pH 8, 30 °C, HPLC (DAD-280 nm); for digestion by bromelain: 300 rpm, triplicates
T1 construct: purchased Sigma-Aldrich (Steinheim, Germany); host or cells: pineapple stem
T1 sequence (P14518 1-212): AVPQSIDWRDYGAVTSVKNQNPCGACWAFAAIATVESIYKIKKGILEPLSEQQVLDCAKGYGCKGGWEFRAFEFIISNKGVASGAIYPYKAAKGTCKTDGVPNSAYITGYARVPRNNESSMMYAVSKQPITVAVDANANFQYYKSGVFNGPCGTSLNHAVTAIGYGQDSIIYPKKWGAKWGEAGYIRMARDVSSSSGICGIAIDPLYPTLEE
Experimental: (§1) Freeze-dried peptides AbuK16, MfeGlyK16, DfeGlyK16, and TfeGlyK16 were dissolved in 100 μL of buffer (50 mM bis-tris propane + 20 mM CaCl2, pH 8) to a final concentration of 500 μM. The peptides were incubated with different proteolytic enzymes (10 μL in buffer): trypsin (0.075 μM), elastase (0.45 μM), proteinase K (0.075 μM), and bromelain (4.5 μM). The experiments were incubated at either 37 °C (trypsin and proteinase K) or 30 °C (elastase and bromelain) in a Thriller thermoshaker-incubator (VWR International, Radnor, PA, USA) with shaking at 300 rpm. Aliquots (15 μL) were taken at fixed time points and quenched with 90 μL of a solution of 30% acetic acid in water containing 133 μM Ac-[4]Abz-Gly-OH as a reference. Peptide degradation was monitored by high-performance liquid chromatography (HPLC) using a Hitachi Primaide UV-HPLC system (VWR/Hitachi, Darmstadt, Germany). A Kinetex RP-C18 ([…], 100 Å, 250 × 4.6 mm, Phenomenex, USA) column and a SecurityGuard Cartridge Kit equipped with a C18 cartridge (4 × 3.0 mm, Phenomenex, USA) as a pre-column was used. The mobile phases employed were 0.1% aqueous […] (TFA) (solvent A) and acetonitrile + 0.1% TFA (solvent B). The solvent conditions for analysis were as follows: 0–5 min, 5% B; 5–20 min, 5–90% B; 20–23 min, 90–100% B; 23–25 min, 100% B; 25–27 min, 100–5% B; and 27–30 min, 5% B. In all cases, the peaks corresponding to each peptide sample (full-length peptides) and the reference sample were integrated and used to determine the amount of the substrate still present in solution. The content of starting material after 5 min was termed as absolute amount for simplicity. All experiments were performed in triplicates, and error bars were obtained as standard deviations of measurements.
(§2) Figure 2 Proteolytic digestion of AbuK16, MfeGlyK16, DfeGlyK16, and TfeGlyK16 by the serine proteases β-trypsin, elastase, proteinase K, and bromelain (pineapple stem) in 50 mM bis-tris propane + 20 mM CaCl2, pH 8, at 37 °C (β-trypsin and proteinase K) or 30 °C (elastase and bromelain). Real-time detection of peptide proteolysis and calculation of remaining peptide amounts were accomplished by HPLC analysis (DAD-280 nm).

β-trypsin (pancreas) = assay: Peptide digestion assay with β-trypsin; format: in vitro ADME; details: after 2 h; 500 μM peptide, trypsin 0.075 μM, 50 mM bis-tris propane + 20 mM CaCl2, pH 8, 37 °C, 300 rpm; HPLC (DAD-280 nm); triplicates
Experimental: as §1, §2

elastase (pancreas) = target: T2, elastase (pancreas) (Sus scrofa, UniProt P00772); assay: Peptide digestion assay with elastase; format: in vitro ADME; details: after 4 h; 500 μM peptide, elastase 0.45 μM, 50 mM bis-tris propane + 20 mM CaCl2, pH 8, 30 °C, 300 rpm; HPLC (DAD-280 nm); triplicates
T2 construct: purchased Sigma-Aldrich (Steinheim, Germany); host or cells: pancreas
Experimental: as §1, with “The solvent conditions for analysis were as follows: 0–5 min, 5% B; 5–20 min, 5–90% B; 20–23 min, 90–100% B; 23–25 min, 100% B; 25–27 min, 100–5% B; and 27–30 min, 5% B. In all cases, the peaks corresponding to each peptide sample (full-length peptides) and the reference sample were integrated and used to determine the amount of the substrate still present in solution. The content of starting material after 5 min was termed as absolute amount for simplicity. All experiments were performed in triplicates, and error bars were obtained as standard deviations of measurements.” left out

proteinase K = target: T3, proteinase K (Parengyodontium album, UniProt P06873); assay: Peptide digestion assay with proteinase K; format: in vitro ADME, Tritirachium album; details: 500 μM peptide, proteinase K 0.075 μM, 50 mM bis-tris propane + 20 mM CaCl2, pH 8, 37 °C, HPLC (DAD-280 nm), triplicates; for proteolytic stability against proteinase K: after 4 h, 300 rpm
T3 construct: purchased Sigma-Aldrich (Steinheim, Germany)
Experimental: as §1
Figure 2 Proteolytic digestion of AbuK16, MfeGlyK16, DfeGlyK16, and TfeGlyK16 by the serine proteases β-trypsin, elastase, proteinase K, and bromelain (pineapple stem) in 50 mM bis-tris propane + 20 mM CaCl2, pH 8, at 37 °C (β-trypsin and proteinase K) or 30 °C (elastase and bromelain). […]

T3 sequence (P06873 106-384): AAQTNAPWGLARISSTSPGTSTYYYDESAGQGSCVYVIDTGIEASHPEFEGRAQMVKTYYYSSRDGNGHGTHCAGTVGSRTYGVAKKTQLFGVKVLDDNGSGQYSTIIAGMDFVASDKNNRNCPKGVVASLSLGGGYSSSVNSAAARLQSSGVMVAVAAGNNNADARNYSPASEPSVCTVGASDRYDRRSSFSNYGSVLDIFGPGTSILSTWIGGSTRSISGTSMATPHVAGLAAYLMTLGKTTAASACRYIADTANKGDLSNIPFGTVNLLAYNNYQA
T2 sequence (P00772 27-266): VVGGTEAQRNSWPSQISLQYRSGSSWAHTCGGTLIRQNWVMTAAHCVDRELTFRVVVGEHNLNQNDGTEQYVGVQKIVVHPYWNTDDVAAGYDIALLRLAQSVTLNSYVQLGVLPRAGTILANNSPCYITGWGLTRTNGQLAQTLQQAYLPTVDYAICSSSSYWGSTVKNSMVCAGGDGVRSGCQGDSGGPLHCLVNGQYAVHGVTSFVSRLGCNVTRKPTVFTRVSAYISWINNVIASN

| SMILES | digestion by bromelain [1] | remaining full-length peptide after digestion by β-trypsin (β-trypsin (pancreas)) | remaining full-length peptide after digestion by elastase (elastase (pancreas)) | proteolytic stability against proteinase K (proteinase K) | digestion by proteinase K (proteinase K; within 24 h) | remaining peptide after digestion by bromelain ([1]; after 3 days incubation) |
| --- | --- | --- | --- | --- | --- | --- |
| CC[C@H](NC(C)=O)C(=O)N[C@@H](CCCCN)C(=O)N[C@@H](CC)C(=O)N[C@@H](CCCCN)C(=O)N[C@@H](CC)C(=O)N[C@@H](CCCCN)C(=O)N[C@@H](CC)C(=O)N[C@@H](CCCCN)C(=O)N[C@@H](CC)C(=O)N[C@@H](CCCCN)C(=O)N[C@@H](CC)C(=O)N[C@@H](CCCCN)C(=O)N[C@@H](CC)C(=O)N[C@@H](CCCCN)C(=O)N[C@@H](CC)C(=O)N[C@@H](CCCCN)C(=O)Nc1ccc(C(N)=O)cc1 [AbuK16, Ac-(Abu-Lys)8-[4]Abz-NH2] (Ac-[Abu]K[Abu]K[Abu]K[Abu]K[Abu]K[Abu]K[Abu]K[Abu]K[4Abz]-NH2) | digested | comparably higher amounts of peptide were detected | – | – | – | – |
| CC(=O)N[C@@H](CC(F)F)C(=O)N[C@@H](CCCCN)C(=O)N[C@@H](CC(F)F)C(=O)N[C@@H](CCCCN)C(=O)N[C@@H](CC(F)F)C(=O)N[C@@H](CCCCN)C(=O)N[C@@H](CC(F)F)C(=O)N[C@@H](CCCCN)C(=O)N[C@@H](CC(F)F)C(=O)N[C@@H](CCCCN)C(=O)N[C@@H](CC(F)F)C(=O)N[C@@H](CCCCN)C(=O)N[C@@H](CC(F)F)C(=O)N[C@@H](CCCCN)C(=O)N[C@@H](CC(F)F)C(=O)N[C@@H](CCCCN)C(=O)Nc1ccc(C(N)=O)cc1 [DfeGlyK16, Ac-(DfeGly-Lys)8-[4]Abz-NH2] (Ac-[Abu(4,4-F2)]K[Abu(4,4-F2)]K[Abu(4,4-F2)]K[Abu(4,4-F2)]K[Abu(4,4-F2)]K[Abu(4,4-F2)]K[Abu(4,4-F2)]K[Abu(4,4-F2)]K[4Abz]-NH2) | digested | mostly consumed | lower amounts of DfeGlyK16 and TfeGlyK16 detected than AbuK16 and MfeGlyK16 | – | – | – |
| CC(=O)N[C@@H](CCF)C(=O)N[C@@H](CCCCN)C(=O)N[C@@H](CCF)C(=O)N[C@@H](CCCCN)C(=O)N[C@@H](CCF)C(=O)N[C@@H](CCCCN)C(=O)N[C@@H](CCF)C(=O)N[C@@H](CCCCN)C(=O)N[C@@H](CCF)C(=O)N[C@@H](CCCCN)C(=O)N[C@@H](CCF)C(=O)N[C@@H](CCCCN)C(=O)N[C@@H](CCF)C(=O)N[C@@H](CCCCN)C(=O)N[C@@H](CCF)C(=O)N[C@@H](CCCCN)C(=O)Nc1ccc(C(N)=O)cc1 [MfeGlyK16, Ac-(MfeGly-Lys)8-[4]Abz-NH2] | digested | comparably higher amounts of peptide were detected | – | higher proteolytic stability of MfeGlyK16 than that for AbuK16 and DfeGlyK16 | – | – |
| CC(=O)N[C@@H](CC(F)(F)F)C(=O)N[C@@H](CCCCN)C(=O)N[C@@H](CC(F)(F)F)C(=O)N[C@@H](CCCCN)C(=O)N[C@@H](CC(F)(F)F)C(=O)N[C@@H](CCCCN)C(=O)N[C@@H](CC(F)(F)F)C(=O)N[C@@H](CCCCN)C(=O)N[C@@H](CC(F)(F)F)C(=O)N[C@@H](CCCCN)C(=O)N[C@@H](CC(F)(F)F)C(=O)N[C@@H](CCCCN)C(=O)N[C@@H](CC(F)(F)F)C(=O)N[C@@H](CCCCN)C(=O)N[C@@H](CC(F)(F)F)C(=O)N[C@@H](CCCCN)C(=O)Nc1ccc(C(N)=O)cc1 [TfeGlyK16, Ac-(TfeGly-Lys)8-[4]Abz-NH2] (Ac-[Abu(4,4,4-F3)]K[Abu(4,4,4-F3)]K[Abu(4,4,4-F3)]K[Abu(4,4,4-F3)]K[Abu(4,4,4-F3)]K[Abu(4,4,4-F3)]K[Abu(4,4,4-F3)]K[Abu(4,4,4-F3)]K[4Abz]-NH2) | resistant to this protease | mostly consumed | lower amounts of DfeGlyK16 and TfeGlyK16 detected than AbuK16 and MfeGlyK16 | pronounced stability | largely digested | noticeable amounts of this peptide were still present |
